Results reported in US20210186960A1, “MODULATORS OF INDOLEAMINE 2,3-DIOXYGENASE” (GLAXOSMITHKLINE INTELLECTUAL PROPERTY DEVELOPMENT LIMITED, priority 2017, published 2021).
Blank lines part the entries; values can stand above or below the compound they belong to.

Assays:
[1] = test system: human peripheral blood mononuclear cells (PBMC); test: PBMC cytotoxicity assay (CellTiter-Glo); type: cell-based; conditions: pCC50, CellTiter-Glo, stimulated human PBMC, 2 days
Method: (§1) Compounds of the present invention were tested via high-throughput cellular assays utilizing detection of kynurenine via mass spectrometry and cytotoxicity as end-points. For the mass spectrometry and cytotoxicity assays, human peripheral blood mononuclear cells (PBMC) (PB003F; AllCells®, Alameda, Calif.) were stimulated with human interferon-γ (IFN-γ) (Sigma-Aldrich Corporation, St. Louis, Mo.) and lipopolysaccharide from Salmonella minnesota (LPS) (Invivogen, San Diego, Calif.) to induce the expression of indoleamine 2, 3-dioxygenase (IDO1). Compounds with IDO1 inhibitory properties decreased the amount of kynurenine produced by the cells via the tryptophan catabolic pathway. Cellular toxicity due to the effect of compound treatment was measured using CellTiter-Glo® reagent (CTG) (Promega Corporation, Madison, Wis.), which is based on luminescent detection of ATP, an indicator of metabolically active cells.
(§2) In preparation for the assays, test compounds were serially diluted 3-fold in
(§3) DMSO from a typical top concentration of 1 mM or 5 mM and plated at 0.5 μL in 384-well, polystyrene, clear bottom, tissue culture treated plates with lids (Greiner Bio-One, Kremsmünster, Austria) to generate 11-point dose response curves. Low control wells (0% kynurenine or 100% cytotoxicity) contained either 0.5 μL of DMSO in the presence of unstimulated (−IFN-γ/−LPS) PBMCs for the mass spectrometry assay or 0.5 μL of DMSO in the absence of cells for the cytotoxicity assay, and high control wells (100% kynurenine or 0% cytotoxicity) contained 0.5 μL of DMSO in the presence of stimulated (+IFN-γ/+LPS) PBMCs for both the mass spectrometry and cytotoxicity assays.
(§4) Frozen stocks of PBMCs were washed and recovered in RPMI 1640 medium (Thermo Fisher Scientific, Inc., Waltham, Mass.) supplemented with 10% v/v heat-inactivated fetal bovine serum (FBS) (Thermo Fisher Scientific, Inc., Waltham, Mass.), and 1× penicillin-streptomycin antibiotic solution (Thermo Fisher Scientific, Inc., Waltham, Mass.). The cells were diluted to 1,000,000 cells/mL in the supplemented RPMI 1640 medium. 50 μL of either the cell suspension, for the mass spectrometry assay, or medium alone, for the cytotoxicity assay, were added to the low control wells, on the previously prepared 384-well compound plates, resulting in 50,000 cells/well or 0 cells/well respectively. IFN- y and LPS were added to the remaining cell suspension at final concentrations of 100 ng/ml and 50 ng/ml respectively, and 50 μL of the stimulated cells were added to all remaining wells on the 384-well compound plates. The plates, with lids, were then placed in a 37 °C, 5% CO2 humidified incubator for 2 days.
(§5) Following incubation, the 384-well plates were removed from the incubator and allowed to equilibrate to room temperature for 30 minutes. For the cytotoxicity assay, CellTiter-Glo® was prepared according to the manufacturer's instructions, and 40 μL were added to each plate well. After a twenty minute incubation at room temperature, luminescence was read on an EnVision® Multilabel Reader (Perkin Elmer Inc., Waltham, Mass.). For the mass spectrometry assay, 10 μL of supernatant from each well of the compound-treated plates were added to 40 μL of acetonitrile, containing 10 μM of an internal standard for normalization, in 384-well, polypropylene, V-bottom plates (Greiner Bio-One, Kremsmunster, Austria) to extract the organic analytes. Following centrifugation at 2000 rpm for 10 minutes, 10 μL from each well of the acetonitrile extraction plates were added to 90 μL of sterile, distilled H2O in 384-well, polypropylene, V-bottom plates for analysis of kynurenine and the internal standard on the RapidFire 300 (Agilent Technologies, Santa Clara, Calif.) and 4000 QTRAP MS (SCIEX, Framingham, Mass.). MS data were integrated using Agilent Technologies' RapidFire Integrator software, and data were normalized for analysis as a ratio of kynurenine to the internal standard. […]

[2] = biological target: T1, indoleamine 2, 3-dioxygenase (IDO1) (Homo sapiens, UniProt P14902); test: IDO1 PBMC RapidFire MS assay (kynurenine detection); type: cell-based; conditions: IFN-γ/LPS stimulated human PBMC, kynurenine by MS, 2 days; read-out: PBMC PXC50 (converted)
T1 construct: to induce the expression of indoleamine 2, 3-dioxygenase (IDO1); host or cells: human PBMC stimulated with IFN-gamma and LPS
T1 sequence (P14902 whole entry): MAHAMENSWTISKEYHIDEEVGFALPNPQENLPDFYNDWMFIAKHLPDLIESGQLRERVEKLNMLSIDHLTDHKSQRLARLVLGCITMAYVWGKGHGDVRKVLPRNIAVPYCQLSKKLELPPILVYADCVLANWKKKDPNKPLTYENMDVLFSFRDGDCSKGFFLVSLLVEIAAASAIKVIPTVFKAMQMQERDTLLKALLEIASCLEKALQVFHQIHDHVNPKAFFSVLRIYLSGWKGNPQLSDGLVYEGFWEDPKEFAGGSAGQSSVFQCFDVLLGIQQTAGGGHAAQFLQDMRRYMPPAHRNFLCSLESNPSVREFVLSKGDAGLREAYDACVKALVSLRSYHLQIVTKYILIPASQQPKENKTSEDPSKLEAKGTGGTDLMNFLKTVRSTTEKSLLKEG
Method: as §1, §2, §3, §4, §5

[3] = Rat oral PK studies of prodrugs at 5 mg/kg; type: in vivo; conditions: analyte as labelled
Method: Rat oral PK studies of prodrugs at 5 mg/kg dose (solution in 100% (40 mg oleic acid+25mg Tween 80+2 mL of PBS/fresh) at 0.5 mg/mL).

[4] = Plasma PK and tissue distribution after oral dosing of prodrug EXAMPLE 7 (5 mg/kg); type: in vivo; conditions: PO 5 mg/kg EXAMPLE 7 (prodrug), male Wistar Han rat, analyte as labelled
Method: Tissue Distribution of drug intermediate C4 from oral dosing of C4 and of intermediate C4 from oral dosing of example 7 in rats
• Wistar Han rat, 185-197 g, male, N=8, purchased from Beijing Vital River Co. LTD. Qualification No.: SCXK(J) 2016-0011 11400700240027. Fasted overnight and fed 4 hr post dose. PO: 5 mg/kg (10 mL/kg) via oral gavage(N=8). Sampling at 1, 4, 8 and 24 hr , 4 time points, terminal bleeding for plasma, liver, lymph nodes and spleen collected at each time point

[5] = after PO dose of 5 mg/kg example 6 in male Wistar Han rat

IC50 [2]: 158 nM
SMILES: CCCCCCCCCCCCCCCC(=O)OCC(COC(=O)CCCCCCCCCCCCCCC)OC(=O)CCCC(=O)O[C@H]1CC[C@H](N(CC(C)C)c2ccc([C@H](C)CC(=O)O)cc2Nc2ccc(Cl)nc2)CC1 [example 1, (R)-3-(4-((trans-4-((5-((1,3-bis(palmitoyloxy)propan-2-yl)oxy)-5-oxopentanoyl)oxy)cyclohexyl) (isobutyl)amino)-3-((6-chloropyridin-3-yl)amino)phenyl)butanoic acid]
PBMC TOX PXC50 [1]: <5

DNAUC0_20 ([3]; after PO dose of 5 mg/kg example 2 in male Wistar Han rat): not detected
IC50 [2]: 251 nM
SMILES: CCCCCCCCCCCCCCCC(=O)OCC(COC(=O)CCCCCCCCCCCCCCC)OC(=O)CCCC(=O)O[C@H]1CC[C@H](N(CC(C)C)c2ccc([C@H](C)CC(=O)O)cc2Nc2cnc(Cl)cn2)CC1 [example 2, (R)-3-(4-((trans-4-((5-((1,3-bis(palmitoyloxy)propan-2-yl)oxy)-5-oxopentanoyl)oxy)cyclohexyl) (isobutyl)amino)-3-((5-chloropyrazin-2-yl)amino)phenyl)butanoic acid]
PBMC TOX PXC50 [1]: <5

IC50 [2]: 1260 nM
SMILES: CCCCCCCCCCCCCCCC(=O)OCC(COC(=O)CCCCCCCCCCCCCCC)OC(=O)CC(C)CC(=O)O[C@H]1CC[C@H](N(CC(C)C)c2ccc([C@H](C)CC(=O)O)cc2Nc2ccc(Cl)nc2)CC1 (stereo partly drawn) [example 3, (3R)-3-(4-((trans-4-((5-((1,3-bis(palmitoyloxy)propan-2-yl)oxy)-3-methyl-5-oxopentanoyl)oxy)cyclohexyl) (isobutyl)amino)-3-((6-chloropyridin-3-yl)amino)phenyl)butanoic acid]
PBMC TOX PXC50 [1]: <5

IC50 [2]: 7940 nM
SMILES: CCCCCCCCCCCCCCCC(=O)OCC(COC(=O)CCCCCCCCCCCCCCC)OC(=O)CC(C)CC(=O)O[C@H]1CC[C@H](N(CC(C)C)c2ccc([C@H](C)CC(=O)O)cc2Nc2cnc(Cl)cn2)CC1 (stereo partly drawn) [example 4, (3R)-3-(4-((trans-4-((5-((1,3-bis(palmitoyloxy)propan-2-yl)oxy)-3-methyl-5-oxopentanoyl)oxy)cyclohexyl) (isobutyl)amino)-3-((5-chloropyrazin-2-yl)amino)phenyl)butanoic acid]
PBMC TOX PXC50 [1]: <5

DNAUC0_20 ([3]; after PO dose of 5 mg/kg example 5 in male Wistar Han rat): not detected
IC50 [2]: 631 nM
SMILES: CCCCCCCCCCCCCCCC(=O)OCC(COC(=O)CCCCCCCCCCCCCCC)OC(=O)CC(C)CC(=O)Oc1cc(C)cc(C)c1C(C)(C)CC(=O)O[C@H]1CC[C@H](N(CC(C)C)c2ccc([C@H](C)CC(=O)O)cc2Nc2cnc(Cl)cn2)CC1 (stereo partly drawn) [example 5, (3R)-3-(4-((trans-4-((3-(2-((5-((1,3-bis(palmitoyloxy)propan-2-yl)oxy)-3-methyl-5-oxopentanoyl)oxy)-4,6-dimethylphenyl)-3-methylbutanoyl)oxy)cyclohexyl)(isobutyl)amino)-3-((5-chloropyrazin-2-yl)amino)phenyl)butanoic acid]
PBMC TOX PXC50 [1]: <5

DNAUC0_20 [3, 5]: not detected
IC50 [2]: 3160 nM
SMILES: CCCCCCCCCCCCCCCC(=O)OCC(COC(=O)CCCCCCCCCCCCCCC)OC(=O)CC(C)CC(=O)OCOC(=O)C[C@@H](C)c1ccc(N(CC(C)C)C2CCOCC2)c(Nc2ccc(Cl)nc2)c1 (stereo partly drawn) [example 6, 1-(1,3-bis(palmitoyloxy)propan-2-yl) 5-((((R)-3-(3-((6-chloropyridin-3-yl)amino)-4-(isobutyl(tetrahydro-2H-pyran-4-yl)amino)phenyl)butanoyl)oxy)methyl) 3-methylpentanedioate]
PBMC TOX PXC50 [1]: <5

DNAUC0_20 ([3]; after PO dose of 5 mg/kg example 7 in male Wistar Han rat): not detected
IC50 [2]: 1000 nM
liver Concentration Mean ([4]; 1 hr): BQL
liver Concentration individual ([4]; 1 hr): BQL
lymph node Concentration Mean ([4]; 1 hr): BQL
lymph node Concentration individual ([4]; 1 hr): BQL
plasma Concentration Mean ([4]; 1 hr): BQL
plasma Concentration individual ([4]; 1 hr): BQL
spleen Concentration Mean ([4]; 1 hr): BQL
spleen Concentration individual ([4]; 1 hr): BQL
liver Concentration Mean ([4]; 4 hr): BQL
liver Concentration individual ([4]; 4 hr): BQL
lymph node Concentration Mean ([4]; 4 hr): BQL
lymph node Concentration individual ([4]; 4 hr): BQL
plasma Concentration Mean ([4]; 4 hr): BQL
plasma Concentration individual ([4]; 4 hr): BQL
spleen Concentration Mean ([4]; 4 hr): BQL
spleen Concentration individual ([4]; 4 hr): BQL
liver Concentration Mean ([4]; 8 hr): BQL
liver Concentration individual ([4]; 8 hr): BQL
lymph node Concentration Mean ([4]; 8 hr): BQL
lymph node Concentration individual ([4]; 8 hr): BQL
plasma Concentration Mean ([4]; 8 hr): BQL
plasma Concentration individual ([4]; 8 hr): BQL
spleen Concentration Mean ([4]; 8 hr): BQL
spleen Concentration individual ([4]; 8 hr): BQL
liver Concentration Mean ([4]; 24 hr): BQL
liver Concentration individual ([4]; 24 hr): BQL
lymph node Concentration Mean ([4]; 24 hr): BQL
lymph node Concentration individual ([4]; 24 hr): BQL
plasma Concentration Mean ([4]; 24 hr): BQL
plasma Concentration individual ([4]; 24 hr): BQL
spleen Concentration Mean ([4]; 24 hr): BQL
spleen Concentration individual ([4]; 24 hr): BQL
SMILES: CCCCCCCCCCCCCCCC(=O)OCC(COC(=O)CCCCCCCCCCCCCCC)OC(=O)CC(C)CC(=O)OCOC(=O)C[C@@H](C)c1ccc(N(CC(C)C)C2CCOCC2)c(Nc2cnc(Cl)cn2)c1 (stereo partly drawn) [example 7, 1-(1,3-bis(palmitoyloxy)propan-2-yl) 5-((((R)-3-(3-((5-chloropyrazin-2-yl)amino)-4-(isobutyl(tetrahydro-2H-pyran-4-yl)amino)phenyl)butanoyl)oxy)methyl) 3-methylpentanedioate]
PBMC TOX PXC50 [1]: <5

SMILES: CC(C)CN(c1ccc([C@H](C)CC(=O)O)cc1Nc1ccc(Cl)nc1)[C@H]1CC[C@H](O)CC1 [intermediate C2, (R)-3-(3-((6-chloropyridin-3-yl)amino)-4-(((1r,4R)-4 hydroxycyclohexyl)(isobutyl)amino)-phenyl)butanoic acid]
PBMC TOX PXC50 [1]: <5

SMILES: CC(C)CN(c1ccc([C@H](C)CC(=O)O)cc1Nc1cnc(Cl)cn1)[C@H]1CC[C@H](O)CC1 [intermediate C3]
PBMC TOX PXC50 [1]: <5

DNAUC0_20 [3, 5]: 75 ng·h/mL
SMILES: CC(C)CN(c1ccc([C@H](C)CC(=O)O)cc1Nc1ccc(Cl)nc1)C1CCOCC1 [intermediate C5]
PBMC TOX PXC50 [1]: <5
